By IC50 is commonly meant the concentration needed to halve the response being measured. A lower IC50 goes with inhibition by little substance.

In one assay the target is T1, IGF-1R (Homo sapiens, UniProt P08069).
T1 construct: purchased Millipore
Description: kinase inhibitory activity test (ELISA), IGF-1R. It is filed as biochemical. The note with it: ATP 5 μM, 1 hour at 37° C. The method in brief:
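Poly(Glu,Tyr)4:1-coated plates; kinase reacted 1 h at 37 °C with 5 μM ATP (final) in HEPES pH 7.4 buffer with Mg2+/Mn2+. Phosphotyrosine detected by PY99 and HRP anti-mouse IgG with OPD at 490 nm; IC50 from four-parameter fit.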

A further assay concerns the target T2, EGFR^wt (Homo sapiens, UniProt P00533).
T2 construct: purchased Millipore
Description: kinase inhibitory activity test (ELISA), EGFR^WT. The assay is classed as biochemical. The note with it: ATP 5 μM, 1 hour at 37° C. A digest of the protocol: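 ELISA on poly(Glu,Tyr)4:1-coated plates; kinase reaction with 5 μM ATP (final) in 50 mM HEPES pH 7.4, 50 mM MgCl2, 5 mM MnCl2, 0.2 mM Na3VO4, 1 mM DTT, 1 h at 37° C. Phosphotyrosine detected via PY99/HRP and OPD at 490 nm; IC50 by four-parameter fit.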
For orientation: ELISA stands for enzyme-linked immunosorbent assay.

The subject of assay [1] is phosphorylation of EGFR^T790M/L858R, AKT and ERK in NCI-H1975 cells. Description: Western blot, EGFR phosphorylation and downstream signaling in NCI-H1975 cells. It is filed as cell-based, human. The note with it: FIG. 1. How it is done:
The tests were performed using conventional Western Blot (immunoblotting test), as follows. A certain number of A431 cells and NCI-H1975 cells in the logarithmic growth phase were inoculated on 6-well plate and adherent cultured overnight in the incubator. Replaced with serum-free medium and starved for 24 h, a certain concentration of compound was added and reacted for 2 h. 50 ng/mL of EGF stimulating factor was added and reacted for 10 min. The cells were lysed with lysate and samples were collected, and then the samples were taken for SDS-PAGE electrophoresis. After electrophoresis, the protein was transferred to a nitrocellulose membrane by a semi-dry transfer system. The nitrocellulose membrane was placed in a blocking solution (5% skimmed milk diluted with TBS containing 0.1% Tween 20) for 2 h at room temperature, and then incubated overnight at 4° C. in a primary antibody solution (diluted with TBS containing 0.1% Tween 20 by 1:500). It was washed for three times with TBS containing 0.1% Tween 20 for 15 min each time. The membrane was placed in a secondary antibody solution (horseradish peroxidase labeled goat anti-rabbit IgG, diluted with TBS containing 0.1% Tween 20 by 1:2000) and reacted for 1 h at room temperature. After washed for three times as above, the membrane was dyed with ECL plus reagent and photoed using image Quant LAS 4000 camera.

T2 sequence (P00533 25-1210): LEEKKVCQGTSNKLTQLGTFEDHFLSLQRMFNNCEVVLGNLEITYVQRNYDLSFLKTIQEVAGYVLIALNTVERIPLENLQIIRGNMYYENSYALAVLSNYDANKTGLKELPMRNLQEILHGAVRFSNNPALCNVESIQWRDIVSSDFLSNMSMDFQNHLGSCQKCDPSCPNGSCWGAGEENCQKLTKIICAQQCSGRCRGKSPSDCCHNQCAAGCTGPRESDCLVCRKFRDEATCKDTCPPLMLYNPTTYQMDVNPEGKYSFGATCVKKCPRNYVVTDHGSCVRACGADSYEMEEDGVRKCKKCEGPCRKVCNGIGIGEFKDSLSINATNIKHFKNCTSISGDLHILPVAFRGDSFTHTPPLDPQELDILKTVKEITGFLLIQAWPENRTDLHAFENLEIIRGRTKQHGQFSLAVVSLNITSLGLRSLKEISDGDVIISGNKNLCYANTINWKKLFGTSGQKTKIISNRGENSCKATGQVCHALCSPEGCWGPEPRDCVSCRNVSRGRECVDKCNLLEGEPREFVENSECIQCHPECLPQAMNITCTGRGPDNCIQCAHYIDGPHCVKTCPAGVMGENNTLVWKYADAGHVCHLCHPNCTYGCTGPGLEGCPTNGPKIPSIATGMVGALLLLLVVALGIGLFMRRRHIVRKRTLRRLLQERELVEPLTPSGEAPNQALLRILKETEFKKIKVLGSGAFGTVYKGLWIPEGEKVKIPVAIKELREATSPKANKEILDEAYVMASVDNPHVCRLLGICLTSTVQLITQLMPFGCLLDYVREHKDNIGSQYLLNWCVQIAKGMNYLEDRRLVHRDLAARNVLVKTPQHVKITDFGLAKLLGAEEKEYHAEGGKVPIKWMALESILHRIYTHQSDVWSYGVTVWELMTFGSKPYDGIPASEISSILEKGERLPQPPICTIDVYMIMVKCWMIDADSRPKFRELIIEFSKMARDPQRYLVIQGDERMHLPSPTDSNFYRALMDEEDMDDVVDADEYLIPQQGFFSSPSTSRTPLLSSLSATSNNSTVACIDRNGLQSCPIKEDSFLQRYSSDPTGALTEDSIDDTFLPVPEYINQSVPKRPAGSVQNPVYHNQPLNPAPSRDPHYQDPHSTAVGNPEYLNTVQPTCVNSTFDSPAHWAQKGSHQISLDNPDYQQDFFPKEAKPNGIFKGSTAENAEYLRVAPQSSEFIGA
T1 sequence (P08069 31-1367): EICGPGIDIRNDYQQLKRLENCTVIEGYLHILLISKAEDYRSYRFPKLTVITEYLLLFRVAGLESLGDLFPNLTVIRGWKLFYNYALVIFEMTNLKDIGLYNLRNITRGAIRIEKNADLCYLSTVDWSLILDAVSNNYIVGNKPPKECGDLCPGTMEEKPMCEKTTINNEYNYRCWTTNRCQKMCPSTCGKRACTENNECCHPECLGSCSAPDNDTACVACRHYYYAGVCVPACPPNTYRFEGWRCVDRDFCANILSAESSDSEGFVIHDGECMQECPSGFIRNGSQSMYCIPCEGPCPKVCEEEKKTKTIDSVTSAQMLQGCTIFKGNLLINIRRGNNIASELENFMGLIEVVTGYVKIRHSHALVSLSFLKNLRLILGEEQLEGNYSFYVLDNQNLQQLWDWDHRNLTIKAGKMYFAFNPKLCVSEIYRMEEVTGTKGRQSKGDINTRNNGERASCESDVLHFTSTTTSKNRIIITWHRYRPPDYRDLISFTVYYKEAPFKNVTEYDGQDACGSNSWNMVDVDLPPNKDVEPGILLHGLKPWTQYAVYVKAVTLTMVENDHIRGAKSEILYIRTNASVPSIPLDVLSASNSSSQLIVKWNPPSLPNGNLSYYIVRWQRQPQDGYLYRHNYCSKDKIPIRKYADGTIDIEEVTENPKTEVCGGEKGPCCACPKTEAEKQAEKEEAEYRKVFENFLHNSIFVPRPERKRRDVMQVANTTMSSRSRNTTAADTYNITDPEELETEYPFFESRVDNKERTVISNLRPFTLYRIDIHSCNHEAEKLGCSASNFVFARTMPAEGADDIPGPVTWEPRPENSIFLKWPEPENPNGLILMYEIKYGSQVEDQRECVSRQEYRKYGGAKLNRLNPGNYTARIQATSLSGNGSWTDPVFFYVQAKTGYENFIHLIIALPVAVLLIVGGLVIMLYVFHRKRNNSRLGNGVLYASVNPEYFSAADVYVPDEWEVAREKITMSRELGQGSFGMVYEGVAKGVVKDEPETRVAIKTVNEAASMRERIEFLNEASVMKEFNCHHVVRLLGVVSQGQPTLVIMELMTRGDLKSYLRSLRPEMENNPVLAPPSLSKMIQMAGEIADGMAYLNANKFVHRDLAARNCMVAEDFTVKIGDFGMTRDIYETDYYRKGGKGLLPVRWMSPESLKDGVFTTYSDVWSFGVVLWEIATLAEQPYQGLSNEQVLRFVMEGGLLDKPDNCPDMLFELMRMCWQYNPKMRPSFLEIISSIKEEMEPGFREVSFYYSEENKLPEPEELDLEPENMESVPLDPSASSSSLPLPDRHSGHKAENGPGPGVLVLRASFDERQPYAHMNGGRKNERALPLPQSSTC

In the case of `C=CC(=O)Nc1cc(Nc2ncc(Cl)c(Nc3ccc4ccccc4c3)n2)c(OC)cc1N(C)CCN(C)C` [CCB120067, N-((5-((5-chloro-4-((naphthalen-2-yl)amino))pyrimidin-2-yl)amino)-2-((N-methyl-N-dimethylaminoethyl)amino)-4-methoxyphenyl)acrylamide], the values for the IC50 against IGF-1R and against EGFR^wt were 31.9 nM and 9.4 nM, respectively. The “inhibition of phosphorylation of EGFR^T790M/L858R and activation of AKT and ERK” value in assay [1] (2 h compound, EGF 50 ng/mL 10 min) is listed as “significantly inhibit”. In addition, the “inhibitory activity on phosphorylated EGFR^T790M/L858R, Akt and Erk compared with CO1686” value in assay [1] (CCB120067 at 1 nM) is recorded as “comparable or slightly better than that of CO1686 at 100 nM concentration”.

For the origin of these results see patent US10059694B2, “2-aminopyrimidine compound and pharmaceutical composition and use thereof” (Shanghai Institute of Materia Medica, Chinese Academy of …, priority 2014, dated 2018).
